Common to all, as to test: Bliss excess, mean over the matrix (fraction); higher = more synergy
Assay [1] deals with BE-13 (T-Lymphoblastic Leukemia). Put shortly: (§1)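 Cell lines in DMEM/F12 or RPMI with 10% FBS were plated in 1536-well plates, held 24 hours at 37°C, 5% CO2, then given two-drug dose matrices for 72 hours (DMSO typically 0.2%). Viability was read by CellTiter-Glo 2.0 luminescence and scaled as inhibition from 0 (vehicle wells) to 1 (blank wells). Combination Emax is the second-highest inhibition in the matrix; Bliss excess is observed combination effect minus expected EA + EB − EA·EB, EA and EB being single-agent effects.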

Assay [2] concerns SNU-449 (Hepatocellular Carcinoma). Put shortly:
as §1

The test system of assay [3] is HuCCT1 (Biliary Tract Carcinoma). Put shortly: as §1
In a further assay the test system is LOXIMVI (Melanoma). Put shortly: as §1
The subject of assay [4] is SAS (Oral Cavity Carcinoma). Put shortly: as §1
Assay [5] concerns HH (T-Cell Non-Hodgkin's Lymphoma). Put shortly: as §1
The subject of assay [6] is SW1710 (Bladder Carcinoma). Put shortly:
as §1

Assay [7] relates to LNZTA3WT4 (Low Grade Glioma). Put shortly:
as §1

The test system of assay [8] is SNU-16 (Gastric Carcinoma). Put shortly: as §1
A further assay concerns MPP-89 (Mesothelioma). Put shortly: as §1
In a further assay the test system is GAMG (Glioblastoma). Put shortly:
as §1

In assay [9] the test system is BFTC-909 (Kidney Carcinoma). Put shortly: as §1
The subject of assay [10] is L-428 (Hodgkin's Lymphoma). Put shortly: as §1
For assay [11], the system named is HeLa (Cervical Carcinoma). Put shortly:
as §1

`Cc1c2c(nn1C)CSCc1cc(n(C)n1)CSc1cc(c3ccccc3c1)OCCCc1c(C(=O)O)n(C)c3c-2c(Cl)ccc13` [AZD5991] + CC(=O)O[C@H]1C(=O)[C@@]2(C)[C@H]([C@H](OC(=O)c3ccccc3)[C@]3(O)C[C@H](OC(=O)[C@H](O)[C@@H](NC(=O)c4ccccc4)c4ccccc4)C(C)=C1C3(C)C)[C@]1(OC(C)=O)CO[C@@H]1C[C@@H]2O [Paclitaxel] (first compound max 1 µM, 7x7, partner max 3 µM): the Bliss excess in assay [1] was -0.0476; in [2] it was -0.0404; in assay [3], -0.0164; in the assay on LOXIMVI (Melanoma), -0.0081; in assay [4], 0.0067; in assay [5], 0.0737. The Bliss excess is -0.0241 in assay [6]; -0.0447 in assay [7]; 0.0119 in assay [8]; -0.0347 in the assay with MPP-89 (Mesothelioma); 0.039 in the assay with GAMG (Glioblastoma).
Take `C[C@@H](Oc1cc(-c2cnn(C3CCNCC3)c2)cnc1N)c1c(Cl)ccc(F)c1Cl` [Crizotinib] + Cn1cnc2c(F)c(Nc3ccc(Br)cc3Cl)c(C(=O)NOCCO)cc21 [Selumetinib] (first compound max 10 µM, 7x7, partner max 10 µM): the Bliss excess in assay [1] was -0.0251; in [2], -0.0665; in [3], -0.0516; with LOXIMVI (Melanoma), -0.0068; in assay [4], -0.0073; in [5], -0.0238. For the same compound, the Bliss excess in assay [6] is -0.0956; in assay [7] it was -0.0285; in assay [8], -0.0073; with MPP-89 (Mesothelioma) it was -0.0078; with GAMG (Glioblastoma), -0.0308.
For the compound `C[C@@H]1COCCN1c1cc(C2([S@](C)(=N)=O)CC2)nc(-c2ccnc3[nH]ccc23)n1` [AZD6738] + C1CC(C1)(C(=O)[O-])C(=O)[O-].N.N.[Pt+2] [Carboplatin] (first compound max 10 µM, 7x7, partner max 10 µM), the Bliss excess in assay [1] was -0.0436; in [2] it was -0.0341; in assay [3] it was -0.0477; in the assay on LOXIMVI (Melanoma), -0.0438; in assay [4], -0.0459; in [5], -0.0016. The Bliss excess is -0.0642 in [6]; -0.0459 in assay [7]; 0.0045 in [8]; -0.035 with MPP-89 (Mesothelioma); -0.0162 with GAMG (Glioblastoma).
Take `C=CCn1c(=O)c2cnc(Nc3ccc(N4CCN(C)CC4)cc3)nc2n1-c1cccc(C(C)(C)O)n1` [AZD1775] + CCc1c2c(nc3ccc(O)cc13)-c1cc3c(c(=O)n1C2)COC(=O)[C@]3(O)CC [SN-38] (first compound max 1 µM, partner max 0.3 µM): the Bliss excess in assay [1] is -0.0186; in assay [2] it was -0.0298; in assay [3], -0.0281; with LOXIMVI (Melanoma), -0.0862; in [4], 0.0334; in assay [5] it was -0.0696. Moreover, the Bliss excess in [6] is 0.0053; in assay [7] it was -0.0414; in assay [8], -0.0475; in the assay with MPP-89 (Mesothelioma), 0.0163; in the assay with GAMG (Glioblastoma), 0.001.
Consider `CS(=O)(=O)CCNCc1ccc(-c2ccc3ncnc(Nc4ccc(OCc5cccc(F)c5)c(Cl)c4)c3c2)o1` [Lapatinib] + NC1(c2ccc(-c3nc4ccn5c(=O)[nH]nc5c4cc3-c3ccccc3)cc2)CCC1 [MK-2206] (first compound max 10 µM, 7x7, partner max 10 µM), for which the Bliss excess is -0.0842 in assay [1]; 0.0446 in assay [2]; -0.018 in [3]; 0.043 in the assay with LOXIMVI (Melanoma); 0.0044 in assay [4]; -0.0002 in [5]. Moreover, the Bliss excess was -0.0417 in assay [6]; -0.0334 in assay [7]; -0.0279 in [9]; 0.0758 in [8]; -0.0391 in the assay with MPP-89 (Mesothelioma); 0.016 in the assay with GAMG (Glioblastoma).
On to `C[C@@H](Nc1cc(F)cc(F)c1)c1cc(C(=O)N(C)C)cc2c(=O)cc(N3CCOCC3)oc12` [AZD8186] + CC(=O)c1c(C)c2cnc(Nc3ccc(N4CCNCC4)cn3)nc2n(C2CCCC2)c1=O [Palbociclib] (first compound max 10 µM, 7x7, partner max 10 µM), for which the Bliss excess in [1] is -0.0165; in assay [2], 0.0373; in assay [3] it was 0.0428; in the assay with LOXIMVI (Melanoma), 0.0909; in [4], -0.0006; in [5], 0.0853. The Bliss excess was 0.0531 in assay [6]; 0.111 in assay [7]; 0.0891 in assay [8]; -0.0317 in the assay with MPP-89 (Mesothelioma); -0.0098 in the assay on GAMG (Glioblastoma).
For `O=C(c1cc(Cc2n[nH]c(=O)c3ccccc23)ccc1F)N1CCN(C(=O)C2CC2)CC1` [Olaparib] + Cc1c2c(nn1C)CSCc1cc(n(C)n1)CSc1cc(c3ccccc3c1)OCCCc1c(C(=O)O)n(C)c3c-2c(Cl)ccc13 [AZD5991] (first compound max 10 µM, 7x7, partner max 1 µM), the Bliss excess is 0.0142 in [1]; -0.045 in assay [2]; -0.0367 in assay [3]; -0.0409 in the assay with LOXIMVI (Melanoma); -0.0344 in [4]; -0.0339 in assay [5]. Further, the Bliss excess in assay [6] was -0.0476; in assay [7] it was -0.0468; in [8], 0.0603; with MPP-89 (Mesothelioma), -0.0586; in the assay with GAMG (Glioblastoma), -0.0488.
On to `O=C(c1cc(Cc2n[nH]c(=O)c3ccccc23)ccc1F)N1CCN(C(=O)C2CC2)CC1` [Olaparib] + CC1(C)CCC(CN2CCN(c3ccc(C(=O)NS(=O)(=O)c4ccc(NCC5CCOCC5)c([N+](=O)[O-])c4)c(Oc4cnc5[nH]ccc5c4)c3)CC2)=C(c2ccc(Cl)cc2)C1 [Venetoclax] (first compound max 10 µM, 7x7, partner max 1 µM), for which the Bliss excess in assay [1] is -0.0238; in assay [2] it was -0.0418; in assay [3] it was -0.0478; with LOXIMVI (Melanoma) it was 0.0029; in assay [4], -0.0168; in [5], -0.0246. The Bliss excess in [6] is -0.0606; in assay [7] it was -0.0739; in [8], 0.0258; in the assay on MPP-89 (Mesothelioma), -0.0605; in the assay on GAMG (Glioblastoma), -0.0303.
In the case of `CCc1c2c(nc3ccc(O)cc13)-c1cc3c(c(=O)n1C2)COC(=O)[C@]3(O)CC` [SN-38] + O=C(c1cc(Cc2n[nH]c(=O)c3ccccc23)ccc1F)N1CCN(C(=O)C2CC2)CC1 [Olaparib] (first compound max 0.3 µM, 7x7, partner max 10 µM), the Bliss excess in [10] is 0.0367; in [1], 0.0503; in assay [2] it was -0.0319; in [3], 0.0046; in the assay with LOXIMVI (Melanoma), 0.0214; in assay [4], 0.0501. For the same compound, the Bliss excess in assay [11] was 0.0232; in assay [5], -0.0275; in [6], 0.037; in [7], -0.0114; in assay [9], 0.0897; in assay [8], 0.0005. The Bliss excess in the assay on MPP-89 (Mesothelioma) was determined as 0.0504; with GAMG (Glioblastoma), 0.109.

These data come from the supplement of paper PMC11061612.
